Experimental data reported in patent publication US20180168161A1, “MICROPROPAGATION OF BLACK COHOSH” (North Carolina Agricultural and Technical State University, priority 2016, published 2018).

Tested on: black cohosh plantlets
Test: Rooting of black cohosh cultures and growth of the micropropagated plantlets in soil
Type: in vivo, Cimicifuga racemosa/Actaea racemose L.
Conditions: rooting 4 weeks, 60% shade
Procedure: All cultures described herein were transferred onto fresh media every 4 weeks. When indicated as such, the cultures were maintained in a plant tissue culture grade growth chamber under a 16-hour photoperiod (e.g. 16 hours of light per a 24 hour period) with a photo flux density of 37.6±4.8 μmol s^−1m^−2 light per day provided by cool white fluorescent tubes at 23±0.1° C., unless otherwise noted. As employed herein, MS supplemented base medium is at a pH of between about 5.4 and 5.8, supplemented with about 0.7% agar and about 3% sucrose, optionally with one or more plant growth regulators as disclosed herein. The pH of the medium is adjusted with a base, such as 1N KOH, and/or an acid, such as 1N HCl, before the agar is added. The supplemented medium is sterilized by autoclaving at about 120° C. and about 106 kPa for about 20 minutes. A first half of the cultures from Example 1B were moved to fresh MS supplemented base medium containing IBA (1.0 mg/1) and kept in a growth chamber under 16 hours light conditions per day for 4 weeks for rooting of the plantlets. See also the bottom row of FIG. 1, which refers to rooting for 4 weeks. […] A second half of the cultures from Example 1B were moved to fresh MS supplemented base medium containing NAA (0.1 mg/1) and kept in a growth chamber under 16 hours light conditions per day for 4 weeks for rooting of the plantlets. […]

With O=C(O)CCCc1c[nH]c2ccccc12 [IBA, indole-3-butyric acid] the “plantlet growth in soil after rooting” value (shoots proliferated in BA+NAA (Example 1B)) was “grew vigorously with normal morphology” and the “plantlet growth in soil after rooting” value (shoots proliferated in kinetin+NAA (Example 1C)) was “grew vigorously”.
